# Tests used:
# [1] = tested on: HeLa tumor cells; experiment: Cytotoxicity (antiproliferative assay) in the absence of light exposure; assay type: cell-based; conditions: 24 hr incubation
# Description: Cytotoxicity was analyzed, considering the intensity of proliferative processes in cells, photosensitizer concentration, and dose of optical power. For each point, 3 flasks with cell monolayer were used.
# The monolayer culture of HeLa tumor cells was chosen and used as the cell.
# The culture of HeLa tumor cells was grown in nutrient medium 199 or in nutrient medium containing hemohydrolyzate supplemented with 10% fetal bovine serum and […] of kanamycin.
# On day 4 after the cell culture was inoculated in the flasks (100,000 cells per 2.0 ml of nutrient medium), the photosensitizer was added at a concentration of 1, 2.5, 5.0, 10.0, 20.0, or 30.0 mg/ml.
# Flasks with light-protective cover (dark cytotoxicity) were incubated at 37.5° C. for 1 hour. The cells were washed with Hank's solution 4 times. 2.0 ml of fresh nutrient medium were added, and the cells were irradiated at the temperature of melting ice for 5, 10, 15 or 20 mins by the light flux of a “METALAZ” laser medical device (wavelength: 627.8 nm, 578.2 or 510.6 nm) or “LD 680-2000” (wavelength: 670-690 nm), depending on the wavelength of maximum spectral absorption of the studied photosensitizer, at a dose of 40 J/cm^2. After 20-24 hours, the number of tumor cell was counted in Goriaev's chamber.
# [2] = tested on: HeLa cell culture; experiment: Phototoxicity (photodynamic activity), 3.5 h incubation, 3.3 joule/cm^2; assay type: cell-based; set-up: number of HELA cells (relative to the control): unit not given here; conditions: for number of HELA cells (relative to the control): incubation 3.5 hours
# Description: To examine the photodynamic effects of a photosensitizer on a HeLa cell culture, the photosensitizer solution was added to the nutrient media at a final concentration of 0.1, 0.5, 1.0, 5.0 or 10 mcg/ml on day 3 after transplanting the cell culture into flasks. The flasks were wrapped with a light protecting cover, and incubated at 37° C. for 3.5 hours. Then, the cells were washed with Hank's solution, and exposed on ice by a laser medical device “LD 680-2000” (wavelength: 670-690 nm) at a dose of 3.3 joule/cm^2. After 20-24 hours, the available cell monolayer was dispersed using a 0.02%-Versene solution, and the number of tumor cells was calculated in Goriaev's chamber. For each point, 3 flasks were used.
# [3] = tested on: sarcoma M-1; experiment: Growth dynamics and growth inhibition of sarcoma M-1 after PDT; assay type: in vivo, rats
# Description: The power density was 0.51 W/cm^2, the output power was 0.4 W, and the spot light diameter was 1 cm. […] Monitoring over radiating power was conducted by a universal power meter included in the laser device “ ? 680-2000”.
substance,measurement,setting,value
[γ-(6-aminohexyl)folic acid]-chlorin e6 [chlorin e6 conjugate],cell survival rates,[1],about 90%
same,inhibition of proliferation of Hela cells,"[2]; concentration of 5-10 mcg/ml, photoexposure",fully inhibited
same,number of HELA cells (relative to the control),"[2]; photoexposure 3.3 joule/cm^2, conc. 0.1 mcg/ml",65.1
same,number of HELA cells (relative to the control),"[2]; photoexposure 3.3 joule/cm^2, conc. 0.5 mcg/ml",42.3
same,number of HELA cells (relative to the control),"[2]; photoexposure 3.3 joule/cm^2, conc. 1.0 mcg/ml",12.6
same,number of HELA cells (relative to the control),"[2]; photoexposure 3.3 joule/cm^2, conc. 5.0 mcg/ml",0.1
same,Growth inhibition rate of sarcoma M-1 of rats in volume to the control,"[3]; 2.5 mg/100 g + 100 J/cm^2 for 1 h, day 7",47.5
same,Growth inhibition rate of sarcoma M-1 of rats in volume to the control,"[3]; 2.5 mg/100 g + 100 J/cm^2 for 1 h, day 10",79.4
same,Growth inhibition rate of sarcoma M-1 of rats in volume to the control,"[3]; 2.5 mg/100 g + 100 J/cm^2 for 1 h, day 12",87.6
same,Growth inhibition rate of sarcoma M-1 of rats in volume to the control,"[3]; 2.5 mg/100 g + 100 J/cm^2 for 1 h, day 14",89.8
same,Growth inhibition rate of sarcoma M-1 of rats in volume to the control,"[3]; 2.5 mg/100 g + 100 J/cm^2 for 1 h, day 17",94.8
same,Growth inhibition rate of sarcoma M-1 of rats in volume to the control,"[3]; 2.5 mg/100 g + 100 J/cm^2 for 1 h, day 19",94.1
same,Growth inhibition rate of sarcoma M-1 of rats in volume to the control,"[3]; 2.5 mg/100 g + 100 J/cm^2 for 1 h, day 21",94.2
same,Growth inhibition rate of sarcoma M-1 of rats in volume to the control,"[3]; 2.5 mg/100 g + 100 J/cm^2 for 1 h, day 24",93.6
same,Growth dynamics of sarcoma M-1 (volume),"[3]; 2.5 mg/kg + 100 J/cm^2 for 1 h, day 7 after tumor transplant",0.25 ± 0.03 cm^3
same,Growth dynamics of sarcoma M-1 (volume),"[3]; 2.5 mg/kg + 100 J/cm^2 for 1 h, day 10 after tumor transplant",0.28 ± 0.03 cm^3
same,Growth dynamics of sarcoma M-1 (volume),"[3]; 2.5 mg/kg + 100 J/cm^2 for 1 h, day 12 after tumor transplant",0.34 ± 0.06 cm^3
same,Growth dynamics of sarcoma M-1 (volume),"[3]; 2.5 mg/kg + 100 J/cm^2 for 1 h, day 14 after tumor transplant",0.41 ± 0.09 cm^3
same,Growth dynamics of sarcoma M-1 (volume),"[3]; 2.5 mg/kg + 100 J/cm^2 for 1 h, day 17 after tumor transplant",0.46 ± 0.11 cm^3
same,Growth dynamics of sarcoma M-1 (volume),"[3]; 2.5 mg/kg + 100 J/cm^2 for 1 h, day 19 after tumor transplant",0.69 ± 0.27 cm^3
same,Growth dynamics of sarcoma M-1 (volume),"[3]; 2.5 mg/kg + 100 J/cm^2 for 1 h, day 21 after tumor transplant",0.96 ± 0.38 cm^3
same,Growth dynamics of sarcoma M-1 (volume),"[3]; 2.5 mg/kg + 100 J/cm^2 for 1 h, day 24 after tumor transplant",1.19 ± 0.48 cm^3
same,Growth inhibition rate of sarcoma M-1 of rats in volume to the control,"[3]; 5 mg/100 g + 100 J/cm^2 for 1 h, day 7",36.9
same,Growth inhibition rate of sarcoma M-1 of rats in volume to the control,"[3]; 5 mg/100 g + 100 J/cm^2 for 1 h, day 10",77.9
same,Growth inhibition rate of sarcoma M-1 of rats in volume to the control,"[3]; 5 mg/100 g + 100 J/cm^2 for 1 h, day 12",89.1
same,Growth inhibition rate of sarcoma M-1 of rats in volume to the control,"[3]; 5 mg/100 g + 100 J/cm^2 for 1 h, day 14",92.6
same,Growth inhibition rate of sarcoma M-1 of rats in volume to the control,"[3]; 5 mg/100 g + 100 J/cm^2 for 1 h, day 17",95.8
same,Growth inhibition rate of sarcoma M-1 of rats in volume to the control,"[3]; 5 mg/100 g + 100 J/cm^2 for 1 h, day 19",95.9
same,Growth inhibition rate of sarcoma M-1 of rats in volume to the control,"[3]; 5 mg/100 g + 100 J/cm^2 for 1 h, day 21",96.9
same,Growth inhibition rate of sarcoma M-1 of rats in volume to the control,"[3]; 5 mg/100 g + 100 J/cm^2 for 1 h, day 24",97.1
same,Growth dynamics of sarcoma M-1 (volume),"[3]; 5 mg/kg + 100 J/cm^2 for 1 h, day 7 after tumor transplant",0.29 ± 0.02 cm^3
same,Growth dynamics of sarcoma M-1 (volume),"[3]; 5 mg/kg + 100 J/cm^2 for 1 h, day 10 after tumor transplant",0.300 ± .03 cm^3
same,Growth dynamics of sarcoma M-1 (volume),"[3]; 5 mg/kg + 100 J/cm^2 for 1 h, day 12 after tumor transplant",0.30 ± 0.03 cm^3
same,Growth dynamics of sarcoma M-1 (volume),"[3]; 5 mg/kg + 100 J/cm^2 for 1 h, day 14 after tumor transplant",0.30 ± 0.03 cm^3
same,Growth dynamics of sarcoma M-1 (volume),"[3]; 5 mg/kg + 100 J/cm^2 for 1 h, day 17 after tumor transplant",0.37 ± 0.05 cm^3
same,Growth dynamics of sarcoma M-1 (volume),"[3]; 5 mg/kg + 100 J/cm^2 for 1 h, day 19 after tumor transplant",0.47 ± 0.11 cm^3
same,Growth dynamics of sarcoma M-1 (volume),"[3]; 5 mg/kg + 100 J/cm^2 for 1 h, day 21 after tumor transplant",0.50 ± 0.14 cm^3
same,Growth dynamics of sarcoma M-1 (volume),"[3]; 5 mg/kg + 100 J/cm^2 for 1 h, day 24 after tumor transplant",0.54 ± 0.17 cm^3
same,Growth inhibition rate of sarcoma M-1 of rats in volume to the control,"[3]; 10 mg/100 g + 100 J/cm^2 for 1 h, day 7",56.5
same,Growth inhibition rate of sarcoma M-1 of rats in volume to the control,"[3]; 10 mg/100 g + 100 J/cm^2 for 1 h, day 10",86.0
same,Growth inhibition rate of sarcoma M-1 of rats in volume to the control,"[3]; 10 mg/100 g + 100 J/cm^2 for 1 h, day 12",93.8
same,Growth inhibition rate of sarcoma M-1 of rats in volume to the control,"[3]; 10 mg/100 g + 100 J/cm^2 for 1 h, day 14",95.8
same,Growth inhibition rate of sarcoma M-1 of rats in volume to the control,"[3]; 10 mg/100 g + 100 J/cm^2 for 1 h, day 17",98.1
same,Growth inhibition rate of sarcoma M-1 of rats in volume to the control,"[3]; 10 mg/100 g + 100 J/cm^2 for 1 h, day 19",95.2
same,Growth inhibition rate of sarcoma M-1 of rats in volume to the control,"[3]; 10 mg/100 g + 100 J/cm^2 for 1 h, day 21",98.8
same,Growth inhibition rate of sarcoma M-1 of rats in volume to the control,"[3]; 10 mg/100 g + 100 J/cm^2 for 1 h, day 24",98.9
same,Growth dynamics of sarcoma M-1 (volume),"[3]; 10 mg/kg + 100 J/cm^2 for 1 h, day 7 after tumor transplant",0.20 ± 0.03 cm^3
same,Growth dynamics of sarcoma M-1 (volume),"[3]; 10 mg/kg + 100 J/cm^2 for 1 h, day 10 after tumor transplant",0.19 ± 0.04 cm^3
same,Growth dynamics of sarcoma M-1 (volume),"[3]; 10 mg/kg + 100 J/cm^2 for 1 h, day 12 after tumor transplant",0.17 ± 0.03 cm^3
same,Growth dynamics of sarcoma M-1 (volume),"[3]; 10 mg/kg + 100 J/cm^2 for 1 h, day 14 after tumor transplant",0.17 ± 0.03 cm^3
same,Growth dynamics of sarcoma M-1 (volume),"[3]; 10 mg/kg + 100 J/cm^2 for 1 h, day 17 after tumor transplant",0.17 ± 0.03 cm^3
same,Growth dynamics of sarcoma M-1 (volume),"[3]; 10 mg/kg + 100 J/cm^2 for 1 h, day 19 after tumor transplant",0.17 ± 0.03 cm^3
same,Growth dynamics of sarcoma M-1 (volume),"[3]; 10 mg/kg + 100 J/cm^2 for 1 h, day 21 after tumor transplant",0.20 ± 0.03 cm^3
same,Growth dynamics of sarcoma M-1 (volume),"[3]; 10 mg/kg + 100 J/cm^2 for 1 h, day 24 after tumor transplant",0.20 ± 0.03 cm^3

# From patent US20120035180A1, “PHARMACEUTICAL COMPOSITION FOR TREATING CANCER COMPRISING CHLORIN E6-FOLIC ACID CONJUGATE COMPOUND AND CHITOSAN” (priority 2009, published 2012)
